Patent US8822542B2, “Isoketal scavengers and mitigation of disorders involving oxidative injury” (Vanderbilt University, priority 2005, dated 2014)
“Also recorded” adds a separate entry of the source. One block for each compound: values may come before it.

Columns and labels:
[1] = Second order rate of pyrrole formation with the model γ-ketoaldehyde 4-oxopentanal; type: biochemical
Method: The present inventors determined the approximate second order rate constants of different amines for pyrrole formation with […], a γ-ketoaldehyde.
These compounds are tested for the rate of pyrrole formation when incubated with the γ-ketoaldehyde, 4-oxopentanal. […] Ehrlich reagent may be used to detect levels of pyrroles.
All rates are shown relative to N-α-acetyl-lysine.

bovine serum albumin = bovine serum albumin (Bos taurus, UniProt P02769); test: Disappearance of free IsoK and HNE during incubation with bovine serum albumin (rate of adduction); type: biochemical; details: after 80 minutes
Sequence of bovine serum albumin (P02769 25-607): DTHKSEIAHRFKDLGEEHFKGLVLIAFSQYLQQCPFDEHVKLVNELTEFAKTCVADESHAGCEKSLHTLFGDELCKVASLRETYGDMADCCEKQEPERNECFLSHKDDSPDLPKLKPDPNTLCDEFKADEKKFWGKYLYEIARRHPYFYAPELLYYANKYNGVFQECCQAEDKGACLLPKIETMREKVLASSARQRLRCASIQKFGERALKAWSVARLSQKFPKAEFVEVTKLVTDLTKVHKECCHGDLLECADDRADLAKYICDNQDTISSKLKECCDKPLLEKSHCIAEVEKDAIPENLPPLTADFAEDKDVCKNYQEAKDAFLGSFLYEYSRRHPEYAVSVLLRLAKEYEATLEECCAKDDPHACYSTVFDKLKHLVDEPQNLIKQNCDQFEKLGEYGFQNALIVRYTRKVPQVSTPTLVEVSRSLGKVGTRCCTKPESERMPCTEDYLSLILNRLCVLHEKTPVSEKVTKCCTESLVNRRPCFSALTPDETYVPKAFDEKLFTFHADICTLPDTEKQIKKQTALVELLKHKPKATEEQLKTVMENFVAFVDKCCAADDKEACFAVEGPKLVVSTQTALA
Method: Oxidation of AA in vitro produces both F2-IsoPs and IsoKs in nearly equivalent amounts. However, comparison of the formation of F2-IsoPs and IsoKs in vivo is more complex, because IsoKs rapidly adduct to lysyl residues on proteins. […] In striking contrast, approximately 50% of the HNE still remained in free form after 80 minutes.

proteasome = test: Hydrolysis of fluorogenic substrate VKM-amc by proteasome containing cell lysates; type: biochemical; details: equimolar adduction of VKM-amc
ovalbumin (OVA) = ovalbumin (OVA) (Gallus gallus, UniProt P01012); test: Protein cross-linking after incubation with ovalbumin; type: biochemical; details: 10 molar equivalents, about 4 hours
Sequence of ovalbumin (OVA) (P01012 whole entry, species assumed): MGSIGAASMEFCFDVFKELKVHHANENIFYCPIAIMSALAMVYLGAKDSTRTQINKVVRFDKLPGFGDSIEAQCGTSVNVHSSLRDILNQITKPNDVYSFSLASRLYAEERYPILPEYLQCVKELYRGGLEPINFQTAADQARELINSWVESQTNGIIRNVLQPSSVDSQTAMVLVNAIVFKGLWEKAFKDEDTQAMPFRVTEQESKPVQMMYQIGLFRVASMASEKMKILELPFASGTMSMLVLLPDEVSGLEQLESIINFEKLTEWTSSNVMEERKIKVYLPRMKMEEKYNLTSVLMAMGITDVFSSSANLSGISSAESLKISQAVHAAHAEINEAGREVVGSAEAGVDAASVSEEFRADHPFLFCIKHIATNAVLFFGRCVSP
Text: The above findings explained why repeated attempts in the past to detect free IsoKs during oxidation of biological systems in vitro, e.g. microsomes, and in animal models of oxidant injury in vivo were unsuccessful because they are rapidly sequestered as protein adducts. Therefore, the present inventors undertook to determine the identity of IsoK lysyl adducts as a basis for development of methodology to detect IsoK and NeuroK adducts in biological tissues in their adducted form. […] Reversible Schiff base adducts were also identified. Schiff base adducts are formed rapidly and then decline over time, whereas lactam adducts accumulate slowly over time. Lysyl protein adducts of IsoKs and NeuroKs are analyzed by LC/MS/MS following enzymatic digestion of proteins to individual amino acids. Enzymatic digestion of proteins is necessary because the adducts degrade during acid hydrolysis. However, this analysis is further complicated by the proclivity of IsoKs and NKs to induce protein crosslinking, which is resistant to hydrolysis. […] This is a dramatic example of the differential effects of IsoKs/NKs and HNE on protein adduction and cross-linking.

[2] = target: human cardiac Na channel (hH1, or SCN5A) (Homo sapiens, UniProt Q14524); test: Whole-cell Na current recording, wild-type hH1 expressed in HEK-293 cells; details: HEK-293; t-BHP 1 mM, Iso-K 10 μM, flecainide 1 μM
Sequence of human cardiac Na channel (hH1, or SCN5A) (Q14524 whole entry): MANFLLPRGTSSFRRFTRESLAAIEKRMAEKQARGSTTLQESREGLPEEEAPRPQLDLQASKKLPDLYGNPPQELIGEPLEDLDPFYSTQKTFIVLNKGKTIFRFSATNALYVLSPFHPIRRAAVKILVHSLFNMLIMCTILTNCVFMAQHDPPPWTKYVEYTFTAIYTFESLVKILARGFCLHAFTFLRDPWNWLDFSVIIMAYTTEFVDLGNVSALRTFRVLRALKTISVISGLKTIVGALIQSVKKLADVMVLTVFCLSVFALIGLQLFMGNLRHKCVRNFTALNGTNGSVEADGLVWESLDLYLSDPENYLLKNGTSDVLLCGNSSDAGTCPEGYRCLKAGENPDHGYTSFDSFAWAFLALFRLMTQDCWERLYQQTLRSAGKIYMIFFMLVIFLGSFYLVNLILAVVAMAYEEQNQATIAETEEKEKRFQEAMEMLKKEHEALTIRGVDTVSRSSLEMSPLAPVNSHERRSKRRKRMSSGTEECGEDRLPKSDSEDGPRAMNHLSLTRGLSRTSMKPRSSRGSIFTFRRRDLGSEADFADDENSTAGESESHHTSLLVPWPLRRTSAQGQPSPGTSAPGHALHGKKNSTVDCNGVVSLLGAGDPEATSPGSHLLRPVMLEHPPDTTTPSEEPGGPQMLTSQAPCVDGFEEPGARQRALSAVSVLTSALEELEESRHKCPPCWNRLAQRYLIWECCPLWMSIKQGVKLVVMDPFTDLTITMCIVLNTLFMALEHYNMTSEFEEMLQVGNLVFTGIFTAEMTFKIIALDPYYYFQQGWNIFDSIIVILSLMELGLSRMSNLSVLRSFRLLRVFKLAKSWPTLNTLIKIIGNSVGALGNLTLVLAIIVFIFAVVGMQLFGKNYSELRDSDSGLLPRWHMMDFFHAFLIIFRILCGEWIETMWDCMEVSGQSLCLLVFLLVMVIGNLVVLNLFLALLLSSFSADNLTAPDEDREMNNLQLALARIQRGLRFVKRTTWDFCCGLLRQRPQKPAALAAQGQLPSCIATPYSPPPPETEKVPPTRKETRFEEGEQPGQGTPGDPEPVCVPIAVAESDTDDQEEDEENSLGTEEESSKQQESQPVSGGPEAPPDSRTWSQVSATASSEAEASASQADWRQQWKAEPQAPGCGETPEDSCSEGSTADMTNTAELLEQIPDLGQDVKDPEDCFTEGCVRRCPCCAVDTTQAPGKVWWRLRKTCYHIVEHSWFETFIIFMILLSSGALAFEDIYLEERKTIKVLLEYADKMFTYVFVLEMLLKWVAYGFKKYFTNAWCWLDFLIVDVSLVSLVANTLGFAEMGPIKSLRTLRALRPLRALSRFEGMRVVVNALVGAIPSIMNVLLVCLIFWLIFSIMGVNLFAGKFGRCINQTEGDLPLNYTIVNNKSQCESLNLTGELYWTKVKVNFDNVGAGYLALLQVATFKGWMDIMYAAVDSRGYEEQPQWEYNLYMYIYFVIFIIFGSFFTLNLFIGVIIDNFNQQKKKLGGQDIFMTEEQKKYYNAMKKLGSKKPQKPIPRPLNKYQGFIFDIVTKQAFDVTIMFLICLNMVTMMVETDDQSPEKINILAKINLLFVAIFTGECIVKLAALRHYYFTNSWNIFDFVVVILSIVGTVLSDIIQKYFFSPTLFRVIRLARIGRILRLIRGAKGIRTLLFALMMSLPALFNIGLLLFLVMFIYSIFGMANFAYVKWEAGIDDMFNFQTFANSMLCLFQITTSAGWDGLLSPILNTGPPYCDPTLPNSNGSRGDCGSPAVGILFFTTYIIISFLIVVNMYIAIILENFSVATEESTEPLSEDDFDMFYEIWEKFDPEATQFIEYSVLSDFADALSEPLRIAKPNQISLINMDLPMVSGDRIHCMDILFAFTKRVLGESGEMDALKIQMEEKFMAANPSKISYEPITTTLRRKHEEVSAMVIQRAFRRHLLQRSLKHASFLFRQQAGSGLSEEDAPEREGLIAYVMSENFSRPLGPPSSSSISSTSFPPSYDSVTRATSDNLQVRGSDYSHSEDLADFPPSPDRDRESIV

HepG2 cell = test: Cellular viability of HepG2 cells exposed to hydrogen peroxide; type: cell-based
[3] = Lipophilicity / penetration into nonpolar environments; type: physicochemical
[4] = test system: mice subjected to ligation of the left anterior coronary artery; test: Myocardial infarction by coronary ligation in mice; type: in vivo, mouse
Text: (§1) In a series of experiments, the present inventors have tested the effect of the γ KA scavenger salicylamine (SA) in mice subjected to ligation of the left anterior coronary artery resulting in a myocardial infarction. All experiments were done in blinded fashion regarding the treatment group (SA versus placebo (water)). Mice received drinking water containing either SA (1 g/l) or no drug for three days prior to coronary ligation and for 7 days afterwards.
The present inventors examined the effect of SA treatment on Lys-lactam protein adduct formation. Mouse hearts were harvested 7 days after coronary ligation and the atria and the right ventricular free wall were removed. The remainder of each heart (LV free wall and septum) was then cut into two, roughly equal tissue specimens of ˜50 mg wet weight: The anterior-apical part contained the infarct and the peri-infarct border zone (MI+borderzone), and the posterior-basal part was unaffected (Remote). The tissue content of Lys-lactam protein adducts was quantified using our LC MS^2 based analytical technique.

[5] = Oxidation of arachidonic acid in the presence of scavenger and 10 molar excess of lysine; type: biochemical; details: for levels of Lys-lactam adduct formed: compared to vehicle
Text: The amounts of each of these adducts to the amount of γ KA adduct formed were normalized. […] Because cardiac ion channels are embedded in cellular membranes, the ability to penetrate into membranes is critical.

[6] = SA in the drinking water of mice: concentrations and tolerability; type: in vivo, C57BL6 mice
Method: as §1
SA was tested to determine whether it could be used in vivo. 1 g/L or 5 g/L salicylamine was added to the drinking water of C57BL6 mice for 5 days and then harvested plasma and liver from the animals. SA was measured by monitoring absorption at 259 nm after derivatization with 1,1′-thiocarbonyldiimidazole.

[7] = test system: transgenic humanized apoE4 mice (hApoE4); test: Water radial arm maze in transgenic humanized apoE4 mice; type: in vivo, mouse; design: dose or concentration left out as unconfirmed; details: water containing SA, six months, tested at 12 months of age
Text: Starting at six months of age, wild-type (C57) and transgenic humanized apoE4 mice (hApoE4) were given either standard water or water containing […] SA (+SA) as their only source of drinking water. At this time, animals were also switched from standard chow diets to either a sufficient amino acid based diet (suff) or an amino-acid based diet insufficient in choline, methionine, and folate, and enriched in homocysteine (HC). All animals were fed diets and drinking water for six months (to 12 months of age) prior to testing. The purpose of the HC diet was to attempt to exacerbate oxidative stress in these animals. Because breeding and behavioral testing is extremely time consuming, it was not possible to have sufficient animals for each group in a single cohort and still perform adequate behavioral testing. Therefore two separate cohorts of animals (A & B) were raised and tested about two month apart. […]
The water radial arm maze test requires a mouse to find a hidden platform placed in one of six maze arms. […] If the mouse enters an arm without the platform, an error is scored and the mouse is dragged by the tail back to the start arm and released. […] If a mouse swims in the central area for 12 sec without picking an arm, an error is also scored and the animal is dragged back to the start arm and released. […]

[8] = test system: plasma concentrations of F2-IsoPs; test: Porcine model of global ischemia/reperfusion (cardiac arrest and CPR), plasma F2-IsoPs; type: in vivo; details: 30 mg/kg intravenous, single dose during CPR
Method: The present inventors chose antioxidants to test in the models of AD that we have found effective in suppressing oxidative stress in other animal models of oxidative injury. One model of oxidative injury is the porcine model of global ischemia/reperfusion resulting from induction of cardiac arrest for 3 mins followed by cardiopulmonary resuscitation (CPR). Shown in FIG. 25 are results using this model. As shown, cardiac arrest followed by CPR induced a dramatic increase in plasma concentrations of F2-IsoPs. […] This study involved the administration of a single dose of Tempol. Shown in FIG. 26 is data taken from a report from Ortiz, et. al. in which they assessed the ability of chronic oral administration of TEMPOL (1 mM in the drinking water) to suppress the increase in F2-IsoPs induced by chronic IV infusion of angiotensin II. […] Tempol is one of the antioxidants of the present invention.

[9] = test system: F2-IsoPs in renal vein plasma; details: 1 mM in the drinking water, chronic oral; cited from earlier work
[10] = test system: patients convalescing from myocardial infarction; details: in vivo; cited from earlier work
20S proteasome [11] = test: Degradation of adducted ovalbumin by purified 20S proteasome; type: biochemical
20S proteasome [12] = target: 20S proteasome (Homo sapiens, UniProt P28074); test: Inhibition of 20S proteasome chymotrypsin-like activity (LLVY-amc hydrolysis); type: biochemical
[13] = test system: plasma concentrations of F2-IsoPs; test: Vitamin E supplementation, plasma F2-IsoPs in subjects with hypercholesterolemia; type: in vivo, human
Method: The use of antioxidants to suppress oxidative injury: An important aspect of antioxidant clinical trials that has not received sufficient attention until recently, is the scientific rational for the choice of a particular antioxidant to test, the dose to test, and the duration of treatment. […] This was a key finding because the literature is abound with studies in which have vitamin E was administered for less than 10 weeks to determine its effects on some pathologic process. […] This is an important finding because many studies of the effects of vitamin E have used doses of 400 I.U./d and observed no benefit.

progression of AD = details: 2000 I.U./d; cited from earlier work

Compound: NCCO [2-aminoethanol]
- approximate second order rate constants for pyrrole formation [1]: 3.1e+08 M⁻¹ s⁻¹

Compound: NCc1ccc(O)cc1 [4-SA, 4-salicylamine]
- scavenging γ KAs [1]: inactive

Compound: NCc1ccncc1 [4-picolinylamine]
- approximate second order rate constants for pyrrole formation [1]: 0.0011 M⁻¹ s⁻¹

Compound: CCCCCC(O)/C=C/C=O (centres unmarked) [HNE, 4-hydroxynonenal]
- remained in free form (bovine serum albumin): approximately 50%
- hydrolysis of the adducted peptide by proteasome containing cell lysates (proteasome): no effect on hydrolysis
- cross-linking of ovalbumin (ovalbumin (OVA)): no cross-linking was observed
- V1/2 voltage-dependence of inactivation (availability) [2]: −83.7±2.1 mV

Compound: CC(=O)N[C@@H](CCCCN)C(=O)O [N^αacetyllysine]
- approximate second order rate constants for pyrrole formation [1]: 7e+07 M⁻¹ s⁻¹

Compound: Cc1ncc(CO)c(CN)c1O [PM, pyridoxamine]
- protection of cellular viability (HepG2 cell): no significant protection
- lipophilicity / penetration into nonpolar environments [3]: quite hydrophilic; also recorded: poorly penetrates into nonpolar environments

Compound: NCc1ccccc1O [SA, salicylamine]
- systolic function, fractional LV shortening (FS) by echocardiography ([4]; 1 g/l in drinking water, 7 days post MI): improved systolic function
- Lys-lactam protein adducts in infarct and peri-infarct borderzone ([4]; 7 days after coronary ligation): appears to prevent the adduct formation
- infarct size ([4]; hearts harvested 7 days after coronary ligation): significantly reduced infarct size
- survival after MI ([4]; p=0.1): trend towards increased survival
- protection of cellular viability (HepG2 cell): best protection
- scavenging γ KAs [1]: very good at scavenging
- levels of F2-IsoP formed [5]: None of the three scavengers reduced
- selectivity for γ KA products over other lipid peroxidation products [5]: relatively selectively
- levels of Lys-lactam adduct formed [5]: markedly reduced
- lipophilicity / penetration into nonpolar environments [3]: readily dissolve into ethyl acetate; also recorded: most lipophilic scavenger
- tolerability of the dosing regimen ([6]; 1 g/l in drinking water): well tolerated
- oral bioavailability ([6]; mouse, in vivo, po): orally bioavailable
- memory performance (latency, Z-score) [7]: significantly improved the performance
- memory performance (latency, Z-score) ([7]; listed as salicylamine): improves memory

Compound: CC1(C)CC(O)CC(C)(C)N1[O] [Tempol]
- increase in plasma levels of F2-IsoPs [8]: completely ablated this increase
- increase in levels of F2-IsoPs in renal vein plasma [9]: completely prevented the increase

Compound: COc1ccc(C(=O)Nc2ccccc2CCC2CCCCN2C)cc1 (centres unmarked) [encainide]
- mortality increase [10]: three-fold

Compound: F2-isoprostane
- V1/2 voltage-dependence of inactivation (availability) [2]: −91.4±1.8 mV

Compound: IsoK(1)-OVA: ovalbumin adducted with equimolar E2-IsoK
- degradation by purified 20S proteasome (20S proteasome [11]): nearly in half

Compound: IsoK(10)-OVA: ovalbumin adducted with ten molar equivalents of E2-IsoK
- degradation by purified 20S proteasome (20S proteasome [11]): completely blocked its degradation

- IC50 (20S proteasome [12]): 1300 nM
Compound: IsoK-Aβ1-40: Aβ1-40 adducted with E2-IsoK

Compound: pentylpyridoxamine [PPM]
- protection of cellular viability (HepG2 cell): slightly less protection
- scavenging γ KAs [1]: very good at scavenging
- levels of F2-IsoP formed [5]: None of the three scavengers reduced
- selectivity for γ KA products over other lipid peroxidation products [5]: relatively selectively; also recorded: most selective
- levels of Lys-lactam adduct formed [5]: markedly reduced

Compound: vitamin E
- reduction of F2-IsoP levels ([13]; 800 I.U./d, 18 weeks): about 10%
- maximum suppression of plasma F2-IsoPs ([13]; 3200 I.U./d, 18 weeks): 49%
- effect on F2-IsoP levels ([13]; doses below 800 I.U./d, 18 weeks): no significant effect
- supplementation required to reach the plateau in maximum suppression of plasma F2-IsoPs ([13]; human, in vivo): sixteen
- effect to slow the progression of the disease (progression of AD): modest effect
